From the NIST ThermoML archive (doi:10.1016/j.jct.2016.01.028)
Numbers after ± are expanded uncertainties.

Conditions: 102 kPa, Liquid, Frequency=5 MHz, Single path-length method

| speed of sound (293.15 K) [m/s] | speed of sound (298.15 K) [m/s] | speed of sound (303.15 K) [m/s] | speed of sound (308.15 K) [m/s] | speed of sound (313.15 K) [m/s] | speed of sound (318.15 K) [m/s] | speed of sound (323.15 K) [m/s] | speed of sound (328.15 K) [m/s] | speed of sound (333.15 K) [m/s] | speed of sound (338.15 K) [m/s] | speed of sound (343.15 K) [m/s] | SMILES |
| --- | --- | --- | --- | --- | --- | --- | --- | --- | --- | --- | --- |
| 1537 ± 2.6 | 1516.3 ± 2.6 | 1503.7 ± 2.6 | 1486.5 ± 2.6 | 1471 ± 2.6 | 1457 ± 2.6 | 1440 ± 2.6 | 1424.6 ± 2.6 | 1412.8 ± 2.6 | 1397.1 ± 2.6 | 1381.9 ± 2.6 | CCCCC(=O)[O-].C[NH2+]CCO [2-hydroxy-N-methylethanaminium pentanoate] |
| 1576.8 ± 2.6 | 1562.9 ± 2.6 | 1548 ± 2.6 | 1529.7 ± 2.6 | 1511.9 ± 2.6 | 1499.4 ± 2.6 | 1481.3 ± 2.6 | 1467.2 ± 2.6 | 1451.2 ± 2.6 | 1436.7 ± 2.6 | 1419.4 ± 2.6 | CCCC(=O)[O-].C[NH2+]CCO [N-methyl-2-hydroxyethylammonium butanoate] |
